# Data as given in paper PMC7827406, “Structure–Activity Relationship (SAR) Study of Spautin-1 to Entail the Discovery of Novel NEK4 Inhibitors” (International Journal of Molecular Sciences, 2021).
# Where two headings read alike, the source gives them in different places.
# Experiments:
# Assay in all cases: biochemical
# Set-up in all cases: Eurofins KinaseProfiler full panel at Km ATP, residual kinase activity (%) relative to DMSO
# [1] = target: DYRK1A(h) (Homo sapiens, UniProt Q13627)
# How it was run: (§1)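 Compounds screened at 10 µM in radiometric kinase activity assays at Km ATP, reported as remaining kinase activity (%). A KINOMEscan competition-binding screen at 10 µM measured DNA-tagged kinase retained on immobilized active-site ligand by qPCR.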
# [2] = target: Fgr(h) (Homo sapiens, UniProt P09769)
# How it was run: as §1
# [3] = target: Lyn(m) (Mus musculus, UniProt P25911)
# How it was run: as §1
# [4] = target: T1, MSSK1(h) (Homo sapiens, UniProt Q9UPE1)
# T1 construct: gene SRPK3
# How it was run: as §1
# [5] = target: T2, PDHK2(h) (Homo sapiens, UniProt Q15119)
# T2 construct: gene PDK2
# How it was run: as §1
# [6] = target: T3, PI3 Kinase (p110b/p85a)(m) (Mus musculus, UniProt Q8BTI9)
# T3 construct: gene Pik3cb
# How it was run: as §1
# [7] = target: T4, PKCγ(h) (Homo sapiens, UniProt P05129)
# T4 construct: gene PRKCG
# How it was run: as §1
# [8] = target: T5, SGK2(h) (Homo sapiens, UniProt Q9HBY8)
# T5 sequence (Q9HBY8 1-367): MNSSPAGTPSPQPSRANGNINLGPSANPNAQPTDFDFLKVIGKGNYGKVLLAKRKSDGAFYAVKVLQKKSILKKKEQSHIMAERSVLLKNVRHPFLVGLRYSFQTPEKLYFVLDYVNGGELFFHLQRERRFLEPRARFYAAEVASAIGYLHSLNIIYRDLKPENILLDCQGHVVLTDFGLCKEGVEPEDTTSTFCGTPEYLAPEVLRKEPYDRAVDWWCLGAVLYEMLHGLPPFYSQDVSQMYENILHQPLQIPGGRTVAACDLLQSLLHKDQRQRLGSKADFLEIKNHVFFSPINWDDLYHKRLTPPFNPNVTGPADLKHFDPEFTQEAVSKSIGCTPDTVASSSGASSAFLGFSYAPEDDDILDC
# How it was run: as §1
# [9] = target: T6, TRB2(h) (Homo sapiens, UniProt Q92519)
# T6 construct: gene TRIB2
# T6 sequence (Q92519 1-343): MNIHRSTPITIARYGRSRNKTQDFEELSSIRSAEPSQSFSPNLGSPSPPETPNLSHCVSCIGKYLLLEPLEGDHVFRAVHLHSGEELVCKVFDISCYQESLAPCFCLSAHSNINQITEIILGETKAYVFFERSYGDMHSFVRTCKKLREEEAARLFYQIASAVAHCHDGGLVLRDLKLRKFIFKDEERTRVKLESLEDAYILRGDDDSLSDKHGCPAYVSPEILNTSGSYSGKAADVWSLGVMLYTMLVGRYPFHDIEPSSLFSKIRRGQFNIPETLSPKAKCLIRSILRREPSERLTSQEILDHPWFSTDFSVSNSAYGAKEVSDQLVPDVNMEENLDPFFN
# How it was run: as §1
# [10] = target: T7, ULK3(h) (Homo sapiens, UniProt Q6PHR2)
# T7 sequence (Q6PHR2 1-472): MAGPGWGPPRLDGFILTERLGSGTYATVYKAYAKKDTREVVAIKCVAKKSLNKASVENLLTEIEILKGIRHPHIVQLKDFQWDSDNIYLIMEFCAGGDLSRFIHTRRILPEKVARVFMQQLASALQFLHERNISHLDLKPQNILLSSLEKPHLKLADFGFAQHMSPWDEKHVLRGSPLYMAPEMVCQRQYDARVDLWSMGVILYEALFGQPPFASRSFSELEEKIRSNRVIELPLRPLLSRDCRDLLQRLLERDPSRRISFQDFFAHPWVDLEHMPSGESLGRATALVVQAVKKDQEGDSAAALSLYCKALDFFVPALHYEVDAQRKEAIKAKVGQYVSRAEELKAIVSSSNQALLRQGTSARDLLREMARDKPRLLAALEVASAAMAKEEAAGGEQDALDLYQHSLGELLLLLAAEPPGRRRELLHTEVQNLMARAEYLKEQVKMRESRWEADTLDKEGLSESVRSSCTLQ
# How it was run: as §1
# [11] = target: Wee1(h) (Homo sapiens, UniProt P30291)
# How it was run: as §1
# [12] = read-out: Residual activity (%) 5at
# [13] = read-out: Residual activity (%) 5as
# [14] = read-out: Residual activity (%) 5ay
# [15] = read-out: Residual activity (%) Spautin-1 5aa
# T1 sequence (Q9UPE1 whole entry): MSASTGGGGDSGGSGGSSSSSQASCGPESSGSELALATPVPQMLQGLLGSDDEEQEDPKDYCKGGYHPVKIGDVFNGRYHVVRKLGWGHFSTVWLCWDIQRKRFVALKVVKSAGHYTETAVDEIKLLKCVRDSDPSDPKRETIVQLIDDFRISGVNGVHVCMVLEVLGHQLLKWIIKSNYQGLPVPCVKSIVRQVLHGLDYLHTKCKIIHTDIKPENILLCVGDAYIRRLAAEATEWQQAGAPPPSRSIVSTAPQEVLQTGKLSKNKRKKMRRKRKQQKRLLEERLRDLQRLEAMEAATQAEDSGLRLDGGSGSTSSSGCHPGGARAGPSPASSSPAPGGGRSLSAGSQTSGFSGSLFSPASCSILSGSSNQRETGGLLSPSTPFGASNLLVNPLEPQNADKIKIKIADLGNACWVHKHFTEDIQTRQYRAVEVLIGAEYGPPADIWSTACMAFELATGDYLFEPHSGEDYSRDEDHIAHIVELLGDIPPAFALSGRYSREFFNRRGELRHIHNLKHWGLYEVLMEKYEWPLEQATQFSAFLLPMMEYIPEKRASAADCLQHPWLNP
# T3 sequence (Q8BTI9 whole entry): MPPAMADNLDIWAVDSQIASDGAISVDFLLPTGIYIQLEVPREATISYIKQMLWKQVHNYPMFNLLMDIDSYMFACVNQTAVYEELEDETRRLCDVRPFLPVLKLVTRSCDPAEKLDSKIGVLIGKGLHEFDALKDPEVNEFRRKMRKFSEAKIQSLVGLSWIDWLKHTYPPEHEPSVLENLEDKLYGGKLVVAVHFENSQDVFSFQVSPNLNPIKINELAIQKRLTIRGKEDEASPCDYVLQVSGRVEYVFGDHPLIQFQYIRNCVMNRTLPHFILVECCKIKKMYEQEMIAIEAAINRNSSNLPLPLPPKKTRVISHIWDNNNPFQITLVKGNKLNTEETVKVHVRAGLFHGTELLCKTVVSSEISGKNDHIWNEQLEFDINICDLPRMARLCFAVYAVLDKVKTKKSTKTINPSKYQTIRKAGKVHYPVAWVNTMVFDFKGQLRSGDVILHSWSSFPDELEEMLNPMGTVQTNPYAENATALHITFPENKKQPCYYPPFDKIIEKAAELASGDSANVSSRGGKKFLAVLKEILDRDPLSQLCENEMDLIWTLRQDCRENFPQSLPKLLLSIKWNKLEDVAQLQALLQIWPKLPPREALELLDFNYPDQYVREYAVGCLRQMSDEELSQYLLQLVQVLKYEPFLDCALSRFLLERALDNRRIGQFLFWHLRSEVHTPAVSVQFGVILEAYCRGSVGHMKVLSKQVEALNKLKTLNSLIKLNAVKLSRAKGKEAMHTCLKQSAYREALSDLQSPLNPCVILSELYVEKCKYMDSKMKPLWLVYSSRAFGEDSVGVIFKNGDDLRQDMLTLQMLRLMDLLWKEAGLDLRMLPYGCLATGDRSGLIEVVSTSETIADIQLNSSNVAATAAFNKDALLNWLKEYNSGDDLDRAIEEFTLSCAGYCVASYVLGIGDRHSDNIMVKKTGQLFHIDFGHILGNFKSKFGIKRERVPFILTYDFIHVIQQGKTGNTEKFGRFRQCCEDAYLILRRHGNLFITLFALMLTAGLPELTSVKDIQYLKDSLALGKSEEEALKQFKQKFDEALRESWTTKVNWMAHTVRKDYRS
# T3 sequence (P26450 whole entry partner): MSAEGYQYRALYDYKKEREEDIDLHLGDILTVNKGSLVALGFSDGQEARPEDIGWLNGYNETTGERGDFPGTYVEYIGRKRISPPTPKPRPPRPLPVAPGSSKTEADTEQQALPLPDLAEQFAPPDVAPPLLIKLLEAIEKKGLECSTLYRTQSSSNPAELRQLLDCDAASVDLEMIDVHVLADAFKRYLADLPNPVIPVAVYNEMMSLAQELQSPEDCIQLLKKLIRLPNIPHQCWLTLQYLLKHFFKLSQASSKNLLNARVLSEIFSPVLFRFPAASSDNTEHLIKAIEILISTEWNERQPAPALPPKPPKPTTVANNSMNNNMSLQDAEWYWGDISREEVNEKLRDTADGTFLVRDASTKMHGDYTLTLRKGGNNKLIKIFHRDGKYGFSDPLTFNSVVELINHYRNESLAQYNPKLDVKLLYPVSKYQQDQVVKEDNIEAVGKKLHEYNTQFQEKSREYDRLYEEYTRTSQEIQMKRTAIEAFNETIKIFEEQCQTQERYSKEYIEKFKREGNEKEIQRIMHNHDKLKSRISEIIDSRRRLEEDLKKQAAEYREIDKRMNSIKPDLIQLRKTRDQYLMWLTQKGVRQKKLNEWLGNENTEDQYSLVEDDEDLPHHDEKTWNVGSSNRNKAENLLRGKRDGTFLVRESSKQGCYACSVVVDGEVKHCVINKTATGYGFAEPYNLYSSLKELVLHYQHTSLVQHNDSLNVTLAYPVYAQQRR
# Sequence of Lyn(m) (P25911 whole entry): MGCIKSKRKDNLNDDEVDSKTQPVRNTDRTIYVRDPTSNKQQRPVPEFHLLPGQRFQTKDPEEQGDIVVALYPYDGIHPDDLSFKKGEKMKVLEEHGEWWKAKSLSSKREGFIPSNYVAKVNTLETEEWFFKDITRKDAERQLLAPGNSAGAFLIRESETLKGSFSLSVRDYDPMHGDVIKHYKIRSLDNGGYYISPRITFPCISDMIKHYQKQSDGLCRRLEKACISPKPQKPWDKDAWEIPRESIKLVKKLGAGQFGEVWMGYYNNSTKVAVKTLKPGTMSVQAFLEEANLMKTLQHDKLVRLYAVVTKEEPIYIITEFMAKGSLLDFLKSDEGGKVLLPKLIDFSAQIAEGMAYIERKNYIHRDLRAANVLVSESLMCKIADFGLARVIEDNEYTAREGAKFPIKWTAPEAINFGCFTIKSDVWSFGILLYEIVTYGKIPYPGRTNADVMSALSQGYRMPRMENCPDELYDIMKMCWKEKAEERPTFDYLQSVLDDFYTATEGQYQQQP
# Sequence of Wee1(h) (P30291 whole entry): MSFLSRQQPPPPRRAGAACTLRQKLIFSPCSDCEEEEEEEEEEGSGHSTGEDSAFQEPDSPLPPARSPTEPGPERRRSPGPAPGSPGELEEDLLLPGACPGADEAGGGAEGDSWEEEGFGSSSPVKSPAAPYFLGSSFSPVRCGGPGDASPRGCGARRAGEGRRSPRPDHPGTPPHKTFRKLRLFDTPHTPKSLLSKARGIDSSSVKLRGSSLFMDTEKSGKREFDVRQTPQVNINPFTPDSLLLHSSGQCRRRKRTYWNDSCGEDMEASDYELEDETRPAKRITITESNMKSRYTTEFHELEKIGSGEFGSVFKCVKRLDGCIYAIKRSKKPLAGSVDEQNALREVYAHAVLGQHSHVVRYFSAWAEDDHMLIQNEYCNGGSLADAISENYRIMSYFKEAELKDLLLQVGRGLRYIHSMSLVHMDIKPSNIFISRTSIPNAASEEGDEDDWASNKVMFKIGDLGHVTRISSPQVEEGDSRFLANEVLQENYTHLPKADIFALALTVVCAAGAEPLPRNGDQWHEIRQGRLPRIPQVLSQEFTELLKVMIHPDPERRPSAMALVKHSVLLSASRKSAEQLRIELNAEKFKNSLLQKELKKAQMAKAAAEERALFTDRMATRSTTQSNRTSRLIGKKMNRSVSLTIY
# Sequence of Fgr(h) (P09769 whole entry): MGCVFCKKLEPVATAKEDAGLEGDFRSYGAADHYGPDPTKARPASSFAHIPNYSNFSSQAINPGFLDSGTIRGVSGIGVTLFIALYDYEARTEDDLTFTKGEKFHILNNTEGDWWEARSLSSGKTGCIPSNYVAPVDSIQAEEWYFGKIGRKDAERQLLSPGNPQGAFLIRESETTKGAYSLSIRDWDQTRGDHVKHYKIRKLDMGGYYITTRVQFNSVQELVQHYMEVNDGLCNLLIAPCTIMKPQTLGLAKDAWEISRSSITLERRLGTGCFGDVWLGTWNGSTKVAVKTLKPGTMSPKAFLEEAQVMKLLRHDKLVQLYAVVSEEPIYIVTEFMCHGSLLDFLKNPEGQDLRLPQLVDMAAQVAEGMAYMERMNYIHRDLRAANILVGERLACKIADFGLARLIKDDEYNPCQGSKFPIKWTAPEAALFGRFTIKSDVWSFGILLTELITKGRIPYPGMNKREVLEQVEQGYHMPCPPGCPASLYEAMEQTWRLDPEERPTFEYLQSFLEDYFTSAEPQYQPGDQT
compound,measurement,setting,value
"Fc1ccc2ncnc(NCCc3ccc(Cl)cc3)c2c1 [5at, N-[2-(4-Chlorophenyl)Ethyl]-6-Fluoro-4-Quinazolinamine]",remaining activity at 10 µM,[1]; [12],63%
same,remaining activity at 10 µM,[2]; [12],95%
same,remaining activity at 10 µM,[3]; [12],77%
same,remaining activity at 10 µM,[4]; [12],95%
same,remaining activity at 10 µM,[5]; [12],87%
same,remaining activity at 10 µM,[6]; [12],101%
same,remaining activity at 10 µM,[7]; [12],72%
same,remaining activity at 10 µM,[8]; [12],89%
same,remaining activity at 10 µM,[9]; [12],60%
same,remaining activity at 10 µM,[10]; [12],93%
same,remaining activity at 10 µM,[11]; [12],89%
"Fc1ccc(CCNc2ncnc3ccc(F)cc23)cc1 [5as, 6-Fluoro-N-[2-(4-Fluorophenyl)Ethyl]-4-Quinazolinamine]",remaining activity at 10 µM,[1]; [13],68%
same,remaining activity at 10 µM,[2]; [13],114%
same,remaining activity at 10 µM,[3]; [13],91%
same,remaining activity at 10 µM,[4]; [13],91%
same,remaining activity at 10 µM,[5]; [13],93%
same,remaining activity at 10 µM,[6]; [13],98%
same,remaining activity at 10 µM,[7]; [13],74%
same,remaining activity at 10 µM,[8]; [13],115%
same,remaining activity at 10 µM,[9]; [13],65%
same,remaining activity at 10 µM,[10]; [13],92%
same,remaining activity at 10 µM,[11]; [13],114%
"COc1ccc2ncnc(Nc3cccc(F)c3)c2c1 [5ay, N-(3-Fluorophenyl)-6-Methoxy-4-Quinazolinamine]",remaining activity at 10 µM,[1]; [14],29%
same,remaining activity at 10 µM,[2]; [14],90%
same,remaining activity at 10 µM,[3]; [14],93%
same,remaining activity at 10 µM,[4]; [14],81%
same,remaining activity at 10 µM,[5]; [14],94%
same,remaining activity at 10 µM,[6]; [14],99%
same,remaining activity at 10 µM,[7]; [14],81%
same,remaining activity at 10 µM,[8]; [14],103%
same,remaining activity at 10 µM,[9]; [14],31%
same,remaining activity at 10 µM,[10]; [14],90%
same,remaining activity at 10 µM,[11]; [14],102%
"Fc1ccc(CNc2ncnc3ccc(F)cc23)cc1 [5aa, 6-Fluoro-N-(4-fluorobenzyl)-4-Quinazolinamine]",remaining activity at 10 µM,[1]; [15],74%
same,remaining activity at 10 µM,[2]; [15],112%
same,remaining activity at 10 µM,[3]; [15],81%
same,remaining activity at 10 µM,[4]; [15],85%
same,remaining activity at 10 µM,[5]; [15],103%
same,remaining activity at 10 µM,[6]; [15],102%
same,remaining activity at 10 µM,[7]; [15],86%
same,remaining activity at 10 µM,[8]; [15],108%
same,remaining activity at 10 µM,[9]; [15],69%
same,remaining activity at 10 µM,[10]; [15],96%
same,remaining activity at 10 µM,[11]; [15],109%
